*1 amine or outer side, *2 acyl side, *3 side chain or, on linkers, in order; H or OH if unused. Where a SMILES comes first, the peptide text is derived from it. Bridges are numbered along the chain shown (N, C = ends). [ ]: non-standard residue; d: D form. The star is where a group is joined. Phe(4-tBu) = CC(C)(C)c1ccc(C[C@H](N)C(=O)O)cc1; Bip = N[C@@H](Cc1ccc(-c2ccccc2)cc1)C(=O)O; Phe(3-Me) = Cc1cccc(C[C@H](N)C(=O)O)c1; βAsp = O=C(O)[C@H](CC(=O)[*:2])N[*:1]; Val(3-OH) = CC(C)(O)[C@H](N)C(=O)O; 4Pal = N[C@@H](Cc1ccncc1)C(=O)O; 2Thi = N[C@@H](Cc1cccs1)C(=O)O; Cha = N[C@@H](CC1CCCCC1)C(=O)O; Cit = NC(=O)NCCC[C@H](N)C(=O)O; Carboxymethyl = O=C(O)C*; Nle = CCCC[C@H](N)C(=O)O; Orn = NCCC[C@H](N)C(=O)O; Pra = C#CC[C@H](N)C(=O)O; Dab = NCC[C@H](N)C(=O)O; Dap = NC[C@H](N)C(=O)O
Molecular target: T1, human PD-1 / PD-L1-Ig binding on Jurkat cell line over-expressing human PD-1 (Jurkat-PD-1) (Homo sapiens, UniProt Q15116)
T1 construct: expressed in transfected cells; host or cells: Jurkat
T1 sequence (Q15116 25-288): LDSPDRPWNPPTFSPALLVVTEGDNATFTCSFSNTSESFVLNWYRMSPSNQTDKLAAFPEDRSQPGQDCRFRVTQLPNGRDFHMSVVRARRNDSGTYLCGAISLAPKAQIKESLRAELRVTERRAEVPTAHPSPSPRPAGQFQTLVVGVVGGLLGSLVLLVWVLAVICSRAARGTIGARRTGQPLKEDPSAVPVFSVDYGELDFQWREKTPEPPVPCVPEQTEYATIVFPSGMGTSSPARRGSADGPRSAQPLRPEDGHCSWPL
Experiment: Jurkat-PD-1 Cell Binding High-Content Screening Assay (CBA)
Format: cell-based
Conditions: Jurkat-PD-1 cells, PE-labeled PD-L1-Ig 20 nM final; read-out: Jurkat HPD1_PDL1 IC50
Summary of the method: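 Jurkat cells over-expressing human PD-1, in DMEM/10% FCS, pre-incubated with compound 2 h at 37° C. PE-labeled human PD-L1-Ig (20 nM final) added for 1 h; cells fixed in paraformaldehyde with Hoechst 33342 nuclear stain, washed, and bound fluorescence quantified by high-content imaging.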

IC50 | SMILES
93.4 nM | CC(C)C[C@H]1NC(=O)[C@H](CCCN)NC(=O)[C@H](CCCNC(N)=O)NC(=O)[C@H](Cc2ccc(-c3ccccc3)cc2)NC(=O)[C@H](C(C)C)NC(=O)[C@H](Cc2c[nH]c3ccccc23)NC(=O)[C@H](CC(=O)O)NC(=O)[C@H](Cc2ccc(C(C)(C)C)cc2)NC(=O)[C@H](CN)NC(=O)CSC[C@@H](C(=O)N[C@@H](C)C(N)=O)NC(=O)[C@H]([C@@H](C)O)NC(=O)[C@H](C(C)C)NC(=O)[C@H](CC2CCCCC2)NC(=O)[C@H](CCN)NC1=O [Compound 2106] ({CH2CO}-[Dap][Phe(4-tBu)]DWV[Bip][Cit][Orn][dL][Dab][Cha]VTCA-NH2; thioether N-14)
17.1 nM | C#CC[C@H](NC(=O)[C@H](C)NC(=O)[C@@H]1CSCC(=O)N[C@@H](CCN)C(=O)N[C@@H](Cc2ccc(OCC(=O)O)cc2)C(=O)N[C@@H](CC(=O)O)C(=O)N[C@@H](Cc2cccc(C)c2)C(=O)N[C@@H](Cc2ccc(OCC(=O)O)cc2)C(=O)N[C@@H](Cc2ccc(-c3ccccc3)cc2)C(=O)N[C@@H](Cc2ccc(OCC(=O)O)cc2)C(=O)N[C@@H](CCCN)C(=O)N[C@H](CC(C)C)C(=O)N[C@@H](CCN)C(=O)N[C@@H](CC2CCCCC2)C(=O)N[C@@H](C(C)(C)O)C(=O)N[C@@H](CCCC)C(=O)N1)C(=O)O [Compound 2696] ({CH2CO}-[Dab]Y(Carboxymethyl)D[Phe(3-Me)]Y(Carboxymethyl)[Bip]Y(Carboxymethyl)[Orn][dL][Dab][Cha][Val(3-OH)][Nle]CA[Pra]-OH; thioether N-14)
42.2 nM | CC(C)C[C@@H]1NC(=O)[C@H](Cc2c[nH]c3ccccc23)NC(=O)[C@H](CC(=O)O)NC(=O)[C@H](Cc2ccc(O)cc2)NC(=O)[C@H](Cc2ccccc2)NC(=O)CSC[C@@H](C(=O)N[C@@H](C)C(N)=O)NC(=O)[C@H]([C@@H](C)O)NC(=O)[C@H](C(C)C)NC(=O)[C@H](CC(C)C)NC(=O)[C@H](CC(N)=O)NC(=O)[C@@H](CC(C)C)NC(=O)[C@H](CCCN)NC(=O)[C@H](C(C)C)NC(=O)[C@H](Cc2ccc(-c3ccccc3)cc2)NC1=O [Compound 1066] ({CH2CO}-FYDWL[Bip]V[Orn][dL]NLVTCA-NH2; thioether N-14)
18.2 nM | CC(C)C[C@H]1NC(=O)[C@H](CCCN)NC(=O)[C@H](CCC(=O)O)NC(=O)[C@H](Cc2ccc(-c3ccccc3)cc2)NC(=O)[C@H](C(C)C)NC(=O)[C@H](Cc2cccs2)NC(=O)[C@H](CC(=O)O)NC(=O)[C@H](Cc2ccncc2)NC(=O)[C@H](Cc2ccncc2)NC(=O)CSC[C@@H](C(=O)N[C@@H](C)C(N)=O)NC(=O)[C@H]([C@@H](C)O)NC(=O)[C@H](C(C)C)NC(=O)[C@H](CC2CCCCC2)NC(=O)[C@H](CCN)NC1=O [Compound 2203] ({CH2CO}-[4Pal][4Pal]D[2Thi]V[Bip]E[Orn][dL][Dab][Cha]VTCA-NH2; thioether N-14)
0.4 nM | CCCC[C@@H]1NC(=O)CSC[C@@H](C(=O)N[C@@H](CCN)C(N)=O)NC(=O)[C@H](CO)NC(=O)[C@H](C(C)(C)O)NC(=O)[C@H](CC2CCCCC2)NC(=O)[C@H](CCN)NC(=O)[C@@H](CC(C)C)NC(=O)[C@H](CCCN)NC(=O)[C@H](Cc2ccc(OCC(=O)O)cc2)NC(=O)[C@H](Cc2ccc(-c3ccccc3)cc2)NC(=O)[C@H](Cc2ccc(OCC(=O)O)cc2)NC(=O)[C@H](Cc2cccc(C)c2)NC(=O)[C@H](CC(=O)O)NC(=O)[C@H](Cc2ccc(OCC(=O)O)cc2)NC1=O [Compound 2687] ({CH2CO}-[Nle]Y(Carboxymethyl)D[Phe(3-Me)]Y(Carboxymethyl)[Bip]Y(Carboxymethyl)[Orn][dL][Dab][Cha][Val(3-OH)]SC[Dab]-NH2; thioether N-14)
9.7 nM | CCC(C)[C@@H]1NC(=O)[C@H](Cc2ccc(-c3ccccc3)cc2)NC(=O)[C@H](C(C)C)NC(=O)[C@H](Cc2cccc(C)c2)NC(=O)[C@H](CC(=O)O)NC(=O)[C@H](Cc2ccc(C(=O)O)cc2)NC(=O)[C@H](CCCNC(=N)N)NC(=O)CSC[C@@H](C(=O)N[C@@H](C)C(N)=O)NC(=O)[C@H](C(C)O)NC(=O)[C@H](C(C)C)NC(=O)[C@H](CC2CCCCC2)NC(=O)[C@H](CCN)NC(=O)[C@@H](CC(C)C)NC(=O)[C@H](CCCN)NC1=O (some centres unmarked) [Compound 2538]
47 nM | CC(C)C[C@@H]1NC(=O)[C@H](CCCCN)NC(=O)[C@@H](CC(C)C)NC(=O)[C@H](CCN)NC(=O)[C@H](Cc2cnc[nH]2)NC(=O)[C@H](Cc2ccc(-c3ccccc3)cc2)NC(=O)[C@H](C(C)C)NC(=O)[C@H](Cc2c[nH]c3ccccc23)NC(=O)[C@H](CC(=O)O)NC(=O)[C@H](Cc2ccc(O)cc2)NC(=O)[C@H](CC(N)=O)NC(=O)CSC[C@@H](C(=O)N[C@@H](C)C(N)=O)NC(=O)[C@H]([C@@H](C)O)NC(=O)[C@H](C(C)C)NC1=O [Compound 1137] ({CH2CO}-NYDWV[Bip]H[Dab][dL]KLVTCA-NH2; thioether N-14)
4 nM | CC(C)C[C@H]1NC(=O)[C@H](CCCN)NC(=O)[C@H](C(C)C)NC(=O)[C@H](Cc2ccc(-c3ccccc3)cc2)NC(=O)[C@H](C(C)C)NC(=O)[C@H](Cc2c[nH]c3ccccc23)NC(=O)[C@H](CC(=O)O)NC(=O)[C@H](Cc2ccc(OCC(=O)O)cc2)NC(=O)[C@H](CN)NC(=O)CSC[C@@H](C(=O)N[C@@H](C)C(N)=O)NC(=O)[C@H]([C@@H](C)O)NC(=O)[C@H](C(C)C)NC(=O)[C@H](CC2CCCCC2)NC(=O)[C@H](CCN)NC1=O [Compound 1312] ({CH2CO}-[Dap]Y(Carboxymethyl)DWV[Bip]V[Orn][dL][Dab][Cha]VTCA-NH2; thioether N-14)
144 nM | CC(C)C[C@H]1NC(=O)[C@H](CCCN)NC(=O)[C@H](CCC(=O)O)NC(=O)[C@H](Cc2ccc(-c3ccccc3)cc2)NC(=O)[C@H](C(C)C)NC(=O)[C@H](Cc2c[nH]c3ccccc23)NC(=O)[C@H](CC(=O)O)NC(=O)[C@H](Cc2ccc(OCC(=O)O)cc2)NC(=O)[C@H](CN)NC(=O)CSC[C@@H](C(=O)N[C@@H](C)C(N)=O)NC(=O)[C@H]([C@@H](C)O)NC(=O)[C@H](C(C)C)NC(=O)[C@H](Cc2cc(F)c(F)cc2F)NC(=O)[C@H](CCN)NC1=O [Compound 1477]
59.9 nM | CC(C)C[C@@H]1NC(=O)[C@H](CCN)NC(=O)[C@@H](CC(C)C)NC(=O)[C@H](CCCCN)NC(=O)[C@H](CCCNC(=N)N)NC(=O)[C@H](Cc2ccc(-c3ccccc3)cc2)NC(=O)[C@H](C(C)C)NC(=O)[C@H](Cc2c[nH]c3ccccc23)NC(=O)[C@H](CC(=O)O)NC(=O)[C@H](Cc2ccc(O)cc2)NC(=O)[C@H](CC(N)=O)NC(=O)CSC[C@@H](C(=O)N[C@@H](C)C(N)=O)NC(=O)[C@H]([C@@H](C)O)NC(=O)[C@H](C(C)C)NC1=O [Compound 1008] ({CH2CO}-NYDWV[Bip]RK[dL][Dab]LVTCA-NH2; thioether N-14)
10.1 nM | C#CC[C@H](NC(=O)C[C@H](NC(=O)[C@H](CCN)NC(=O)[C@@H]1CSCC(=O)N[C@@H](Cc2ccc(OCC(=O)O)cc2)C(=O)N[C@@H](Cc2ccncc2)C(=O)N[C@@H](CC(=O)O)C(=O)N[C@@H](Cc2cccc(C)c2)C(=O)N[C@@H](C(C)C)C(=O)N[C@@H](Cc2ccc(-c3ccccc3)cc2)C(=O)N[C@@H](CCCNC(N)=O)C(=O)N[C@@H](CCCN)C(=O)N[C@H](CC(C)C)C(=O)N[C@@H](CCN)C(=O)N[C@@H](CC2CCCCC2)C(=O)N[C@@H](C(C)C)C(=O)N[C@@H]([C@@H](C)O)C(=O)N1)C(=O)O)C(N)=O [Compound 1768] ({CH2CO}-Y(Carboxymethyl)[4Pal]D[Phe(3-Me)]V[Bip][Cit][Orn][dL][Dab][Cha]VTC[Dab][βAsp][Pra]-NH2; thioether N-14)
